The assay addresses Carbonic anhydrase 7 (Homo sapiens, UniProt P43166). Description: Inhibition of human recombinant CAH7.

One may read the Ki as the equilibrium dissociation constant of an inhibitor or competing ligand from its target.

Sequence of Carbonic anhydrase 7 (P43166 whole entry): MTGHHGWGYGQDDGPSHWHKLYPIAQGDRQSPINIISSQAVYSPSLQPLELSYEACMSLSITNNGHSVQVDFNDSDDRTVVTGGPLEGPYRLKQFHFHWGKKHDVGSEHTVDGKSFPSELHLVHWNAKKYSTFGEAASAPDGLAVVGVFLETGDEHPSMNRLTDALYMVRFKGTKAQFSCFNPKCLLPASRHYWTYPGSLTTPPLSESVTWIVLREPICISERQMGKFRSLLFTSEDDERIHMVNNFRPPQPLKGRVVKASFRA

Consider `COc1cc2c(cc1OC)C(C)N(S(N)(=O)=O)CC2` (stereo unspecified), for which the Ki is 6.4 nM.

The values are drawn from ChEMBL document CHEMBL1765058, “Structural basis for the interaction between carbonic anhydrase and 1,2,3,4-tetrahydroisoquinolin-2-ylsulfonamides” (J Med Chem, 2011).
